In PubChem BioAssay (NCI):
Several values for one entry are separate records, joined by “and”; a condition that tells them apart may be missing. Identical values can stand only once.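 Method: 48-hour compound exposure of cells in 96-well plates, five concentrations, linear interpolation of endpoints. Abbreviation: GI50, concentration required for 50% inhibition of growth. TGI marks complete inhibition of growth.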

How the values were obtained:
Test in all cases: NCI tumour cell line growth inhibition, 48 h
[1] = tested on: A498 renal
[2] = tested on: HCT-15 colon
[3] = tested on: HS 578T breast
[4] = tested on: MDA-MB-231 breast
[5] = tested on: MOLT-4 leukemia
[6] = tested on: OVCAR-5 ovarian
[7] = tested on: SF-295 CNS
[8] = tested on: SF-539 CNS
[9] = tested on: T-47D breast
[10] = tested on: U251 CNS

Compound | GI50 [1] | TGI [1] | GI50 [2] | TGI [2] | GI50 [3] | TGI [3] | GI50 [4] | TGI [4] | GI50 [5] | TGI [5] | GI50 [6] | TGI [6] | GI50 [7] | TGI [7] | GI50 [8] | TGI [8] | GI50 [9] | TGI [9] | GI50 [10] | TGI [10]
CNCCCNc1nc2ccccc2c2c(=O)c3cc(OC)ccc3sc12 | 2250 nM | 8.72 µM | 1520 nM | 2.95 µM | 1940 nM | 4.77 µM | 1520 nM | 2.98 µM | 2060 nM | 4.41 µM | 1670 nM | 3.08 µM | 1820 nM | 3.34 µM | 1700 nM | 3.1 µM | 2220 nM | 5.61 µM | 1810 nM | 3.71 µM
COc1ccc(-c2cc3c(C)nc(N)nc3n(C3CCC(OCCO)CC3)c2=O)cn1 (stereo not drawn) | 21.1 nM | 0.0925 µM | 106 nM and 97.4 nM | > 6.21 µM and 5.11 µM | 34.5 nM and 15 nM | 0.272 µM and 0.113 µM | 96.7 nM and 144 nM | 0.792 µM and 1.13 µM | 67.7 nM and 62.6 nM | > 10 µM and 7.35 µM | 73.4 nM and 48.9 nM | 1.95 µM and 1.02 µM | 50.1 nM and 40.1 nM | 0.326 µM and 0.275 µM | 131 nM and 126 nM | 0.552 µM and 0.461 µM | 13.1 nM and 21.1 nM | 0.0735 µM and 0.147 µM | 181 nM and 162 nM | 2.75 µM and 1.9 µM
Nc1nc2c(C(=O)NCc3cccs3)nnn2c2cccc(Cl)c12 | – | > 100 µM | – | > 100 µM | – | > 100 µM | – | > 100 µM | – | > 100 µM | – | > 100 µM | – | > 100 µM | – | > 100 µM | – | 50.7 µM | – | > 100 µM
O=[N+]([O-])c1ccc(Cl)c(CNc2ncnc3c2ncn3C2CCCCO2)c1 (stereo not drawn) | – | 43.9 µM | – | > 100 µM | – | > 100 µM | – | > 100 µM | – | 88.2 µM | – | > 100 µM | – | > 100 µM | – | 66.1 µM | – | > 100 µM | – | > 100 µM
CN=C1C=CC(=C(c2ccc(N(C)C)cc2)c2ccc(N(C)C)cc2)C=C1 | 193 nM | 0.734 µM | 367 nM | 6.07 µM | 233 nM | 3.02 µM | 267 nM | 0.785 µM | 369 nM | 6.98 µM | 312 nM | 3.43 µM | 147 nM | 0.473 µM | 319 nM | 1.84 µM | 292 nM | 2.1 µM | 58.2 nM | 0.682 µM
Cc1c(C#N)cccc1[C@@H](C)Nc1nnc(C)c2cnc(N3CCOCC3)cc12 | 2720 nM | > 100 µM | 31400 nM | > 100 µM | 12200 nM | 66.6 µM | 26900 nM | > 100 µM | 28300 nM | 90.6 µM | 42200 nM | > 100 µM | 21900 nM | > 100 µM | 43100 nM | > 100 µM | 18500 nM | 81.3 µM | 29800 nM | > 100 µM
N#CC1=C(N)Oc2c(ccc3ccccc23)C1c1cc(=O)oc2ccc(Cl)cc12 (stereo not drawn) | 805 nM | 42.2 µM | 471 nM | 15.8 µM | 656 nM | 47.2 µM | 4360 nM | > 100 µM | 887 nM | 87.8 µM | 4100 nM | > 100 µM | 398 nM | 20.1 µM | 486 nM | 5.57 µM | 646 nM | 24.1 µM | 535 nM | 20.2 µM
COc1cc(OC)cc(C2C3=C(COC3=O)Nc3cc(OC)ccc32)c1 (stereo not drawn) | < 10 nM | < 0.0106 µM | < 10 nM | > 42.6 µM | < 10 nM | > 64.3 µM | < 12.8 nM | – | < 10 nM | – | < 20.1 nM | > 100 µM | < 10 nM | 28.2 µM | < 10 nM | 15.7 µM | < 10 nM | > 100 µM | < 10 nM | > 43.8 µM
C1CN(c2nnc(N3CCC3)nn2)C1 | – | > 100 µM | – | > 100 µM | – | > 92.9 µM | – | > 60.2 µM | – | > 100 µM | – | > 46.4 µM | – | 69.6 µM | – | 77.6 µM | – | > 100 µM | – | > 92.6 µM
C=C1C(O)C2CC(C)(CO)C(=O)C2=C(CC(C)C)C12CC2 (stereo not drawn) | > 100000 nM | > 100 µM | 82300 nM | > 100 µM | > 100000 nM | > 100 µM | > 100000 nM | > 100 µM | 81800 nM | > 100 µM | > 100000 nM | > 100 µM | 57100 nM | > 100 µM | 51600 nM | > 100 µM | > 100000 nM | > 100 µM | 77000 nM | > 100 µM
CC(=O)N1CCN(CCNC(=O)n2cc(-c3ccncc3)c(-c3cc(O)cc(Cl)c3)n2)CC1 | 11700 nM | 28.3 µM | 4250 nM | 22.2 µM | 16700 nM | 53.4 µM | 11700 nM | 26.7 µM | 10400 nM | 49.2 µM | 23800 nM | 63.2 µM | 10500 nM | 25.7 µM | 5730 nM | 21.1 µM | 16600 nM | 49.2 µM | 10900 nM | 26.1 µM
